From patent US20220023273A1, “METHODS FOR TREATING SYMPTOMS AND DISORDERS ASSOCIATED WITH LYSOSOMAL STORAGE DISEASES” (GENZYME CORPORATION, priority 2019, published 2022) come the findings set out here.

Type in all cases: in vivo, human
The test system of series [1] is adult patients with Gaucher disease Type 3. Description: GD3 clinical study: horizontal and vertical saccadic eye movements. To be noted: GD3, 15 mg/day oral + imiglucerase. How it is done:
(§1) During the study patients were evaluated for safety and tolerability, CSF and plasma biomarkers (glucosylceramide, GL-1; glucosylsphingosine, lyso-GL1), pharmacokinetics, markers for systemic disease (spleen and liver volume measured by magnetic resonance imaging (MRI), platelet count, hemoglobin levels), indicia of interstitial lung disease (high resolution pulmonary computed tomography (CT)), and horizontal saccadic eye movement.
Quantification of horizontal and vertical saccadic eye movements (HSEM and VSEM, respectively) was performed in all 5 patients. In the five patients, mean peak velocity (PV) of horizontal rightward 150 saccades was 50.8°/s (+/−8.1°/s) at baseline and […] (+/−12.6°/s) at Week 26: and the mean PV of horizontal leftward 150 saccades was 44.7°/s (+/−17.9°/s) at baseline and 32.3°/s (+/−15.9°/s) at Week 26. […]
At 52 weeks, quantification of horizontal and vertical saccadic eye movements was performed in all six patients in a similar manner as described in section (A). However, it was determined that the methodology used to account for noise (e.g., caused by blinking or head movements) may have introduced bias into the results. The method of accounting for noise was therefore modified, and a set of control criteria were developed to assess validity of the datasets obtained by the eye movement reader.

The test system of series [2] is chitotriosidase (CHITO), GM3, GPNMB, ceramide. Description: GD3 clinical study: exploratory biomarkers. To be noted: GD3, 15 mg/day oral + imiglucerase. How it is done:
Four exploratory biomarkers were quantified in plasma, serum and/or CSF of GD3 patients at week 4 and week 26: chitotriosidase (CHITO; an enzyme known to be elevated in GD patients) was measured in CSF and serum; GM3 (a glycosphingolipid marker known to be elevated in GD patients) was measured in CSF and plasma; and glycoprotein nonmetastatic melanoma protein B (GPNMB; reportedly a biomarker of neuropathic GD3) was measured in CSF. The results are shown in the table below as percent change from baseline at week 4 and week 26 for each parameter:
In addition, exploratory biomarkers were quantified in CSF of GD3 patients: ceramide (the precursor of GL-1), chitotriosidase (CHITO), GM3, and GPNMB.

For series [3], the system named is adult male Fabry patients. Description: Fabry clinical study: SF-36 bodily pain and abdominal pain assessment. The conditions noted are these: Fabry males; for patients with decreased severity of abdominal pain / patients with improved overall bodily pain scores (SF-36) / patients with reduced number of days with gastrointestinal pain: 15 mg/day oral. The text has this: Each sample was scored independently by 3 pathologists for the presence of GL-3 inclusions on a four-point scale, and rated as 0 (no/trace), 1 (mild), 2 (moderate), or 3 (severe) according to Eng et al., N. Engl. J. Med. 345:9-16 (2001). A single score per patient per time point was derived by taking the score rated by the majority of the three pathologists. If a majority score could not be derived, then the median score was used (resulting in some fractional scores). Plasma samples were also analyzed for GL-3, lyso-GL-3, GL-1 and GM3 at baseline and weeks 12, 26, 52 and 156. Pain scores and abdominal symptoms were analyzed at baseline and weeks 12, 26, 52, 104 and 156 using the SF-36 scoring protocol.
Patients were assessed using the Short Form-36 (SF-36) questionnaire on numerous visits from baseline to week 156. This is a 36-item questionnaire used to measure 8 various aspects of health (vitality, physical functioning, bodily pain, general health perceptions, physical role functioning, emotional role functioning, social role functioning and mental health). The score for each of the eight aspects ranges from 0 (maximum disability) to 100 (no disability), and thus, higher scores indicate good health condition. In addition, gastrointestinal symptoms, including abdominal pain, abdominal distention, and bowl movements, were assessed using a modified version of the inflammatory bowel severity scoring system. Particular questions asked as part of these assessments included: (1) whether the patient suffered abdominal pain within the last ten days, (2) what was the severity of abdominal pain suffered in the last ten days using a 0 (no pain) to 100 (very severe pain) scale, and (3) on how many days within the last ten days did the patient have abdominal pain.

Series [4] in a line: Phase 1 Study 1 Part 1: ascending single-dose pharmacokinetics. The conditions noted are these: healthy men, fasted. The source says:
Study 1 was a 2-part single-center trial in healthy adult male volunteers.
Part 1 of the study enrolled and randomized 55 healthy men (placebo, n=14; 2-, 5-, 15, 25-, 50, and 100-mg doses, n=6 each; 150-mg dose, n=5). Eight healthy men participated in Part 2.
After a 7-day washout period, participants were crossed over to the other condition.

The subject of series [5] is adult patients with Gaucher disease Type 3. Description: GD3 clinical study: interstitial lung disease by high-resolution CT. The conditions noted are these: after 26 weeks; GD3, 15 mg/day oral + imiglucerase. How it is done:
as §1
Severity of interstitial lung disease was characterized by the percent of lung volume affect by ILD as measured by high-resolution CT in four lung regions (aortic arch, carina, lower zone L3, lower zone L4). Patients were rated as having severe ILD (51-100% of lung volume affected), moderate ILD (26-50% of lung volume affected), mild ILD (1-25% of lung volume affected) or normal (0% of lung volume showing ILD).

Take `CC(C)(NC(=O)O[C@@H]1CN2CCC1CC2)c1csc(-c2ccc(F)cc2)n1` [Compound 2, (S)-quinuclidin-3-yl (2-(2-(4-fluorophenyl)thiazol-4-yl)propan-2-yl)carbamate]: the VSEM measurements entry in series [1] (between baseline and week 26) is recorded as “stable”. The “changes in HSEM” value in series [1] (over the 26-week treatment period) is “no clinically meaningful changes”. In addition, the “GM3 in CSF” value in series [2] (4, 26 and 52 weeks, the four of six patients with measurable GM3 at baseline) was “undetectable”. The “CSF concentrations of ceramide, CHITO or GPNMB” value in series [2] (after 52 weeks) is “no significant changes”. For the same compound, the “abdominal pain and discomfort” value in series [3] (15 mg/day) is “consistently reduces abdominal pain and discomfort”. Besides, the “patients with decreased severity of abdominal pain” value in series [3] (week 26, patients with gastrointestinal pain at baseline) is recorded as “four out of five”; in series [3] (week 156, patients with gastrointestinal pain at baseline), “four out of four”. The “patients with improved overall bodily pain scores (SF-36)” value in series [3] (week 26) is listed as “Seven of nine”; in series [3] (week 156), “three of six”. The “patients with reduced number of days with gastrointestinal pain” value in series [3] (week 26) was “five of five”; in series [3] (week 156) it was “three of four”. The “CL/F, Geometric mean” value was 6.3 L/h in series [4] (single oral 2 mg); 5.8 L/h in series [4] (single oral 5 mg); 5.6 L/h in series [4] (single oral 15 mg); 5.0 L/h in series [4] (single oral 25 mg); 5.5 L/h in series [4] (single oral 50 mg); 5.3 L/h in series [4] (single oral 100 mg). The “CL/F, Geometric mean” value in series [4] (single oral 150 mg) came to 5.6 L/h. Moreover, the “CL/F, Mean” value in series [4] (single oral 150 mg) worked out at 5.80 L/h. Also, the “patients showing regression of ILD” value in series [5] is recorded as 4 out of 5.
